Paper PMC6620326, “Structural characterization of life-extending Caenorhabditis elegans Lipid Binding Protein 8” (Scientific Reports, 2019)

Experiments:
[1] = molecular target: T1, LBP-8 (Caenorhabditis elegans, UniProt O02324); assay: […],8-ANS fluorescence displacement; format: binding; conditions: PBS pH 8.0, 37 °C, 250 nM protein, 800 nM 1,8-ANS, 1% ethanol; refolded delipidated protein; competitive with 1,8-ANS
T1 construct: full-length residues 1-137, pMCSG7 His6-TEV, E. coli BL21(DE3); His tag cleaved by TEV
T1 sequence (O02324 1-137): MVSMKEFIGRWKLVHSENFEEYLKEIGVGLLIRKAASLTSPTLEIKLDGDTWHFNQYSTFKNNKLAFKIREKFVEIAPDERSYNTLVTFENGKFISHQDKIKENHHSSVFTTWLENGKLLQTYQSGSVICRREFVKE

[2] = molecular target: T1, LBP-8; assay: differential scanning fluorimetry, SYPRO orange; format: binding; conditions: 20 µM ligand, 7 µM refolded protein, 1% ethanol; destabilising shift

Structure (SMILES) | Ki [1] | decrease in Tm vs apo [2]
CCCCCCCC/C=C\CCCCCCCC(=O)NCCO [OEA, oleoylethanolamide] | oleic acid and OEA, and both had very similar Ki’s | –
CCCCCCCC/C=C\CCCCCCCC(=O)O [OA, oleic acid] | oleic acid and OEA, and both had very similar Ki’s | ~ 4 °C
